According to patent US20090318396A1, “CORTICOSTEROID LINKED BETA-AGONIST COMPOUNDS FOR USE IN THERAPY” (priority 2008, published 2009):

Key:
[1] = Stability of steroid C-21 esters, carbonates and carbamates in rat lung homogenate; details: for Mean [Parent] (nM) at 2 hrs, 37° C.: parent compound; for Mean % compound remaining at 2 hrs, 37° C.: 900 nM, n=3
Procedure: Lungs from Fischer 344 rats were obtained fresh by overnight delivery at 4° C. from BioReclamation Inc. (Hicksville, N.Y.). Lungs were weighed and homogenized in a 1:3 w/v ratio with sterile phosphate buffered saline (PBS, 10 mM, pH 7.4) in glass vials on ice. After centrifugation at 3,000×g for 10 min at 4° C. the supernatant was decanted into sterile conical tubes and placed on ice. The total protein content of the supernatant was determined by the bicinchoninic acid (BCA) method (Pierce Biotechnology, Rockford, Ill.), using bovine serum albumin (BSA) as the standard. Lung homogenates were prepared to a final concentration of 1 mg total protein/mL in 10 mM PBS, pH 7.4.
Heat-inactivation was achieved by incubation at 80° C. for 30 min, after which the homogenate was allowed to cool to room temperature, stored overnight at 4° C. The homogenate was used for the assay and standard curve preparations. Before use, each homogenate preparation was equilibrated for 15 min in a 37° C. water bath. […] DMSO (2.7 uL) added to 3 mL of temperature-equilibrated homogenate served as a control. Aliquots (100 uL) of homogenate+compound were added to 400 μL quenching solution consisting of 100% HPLC-grade acetonitrile+500 ng/mL glyburide for the zero time point (n=3 for each time point).
The glyburide served as an internal LC/MS/MS standard. The remainder of each drug+homogenate solution was aliquoted into a 96-well tissue culture plates. After an additional 30 min and 120 min incubation at 37° C., 100 μL aliquots were added to 400 μL quenching solution. Denatured proteins in the quenching solution were separated by centrifugation at 3000×g for 2 min at 4° C., and 160 μL of the supernatants were transferred to new 96-well plate for analysis by LC/MS/MS. Collection plates were covered with plastic film and were kept on ice. For storage, covered plates were and kept stored at −80° C. until further use.
An aliquot of 50 μL of each sample was diluted with 50 μL of water containing internal standard at 4° C. The diluted samples were then centrifuged for 20 minutes at 3000 rpm at 4° C. An aliquot of 20 μL of the solution was injected into the TSQ Ultra Quantum.
LC/MS/MS system. The compounds were separated by HPLC using a HyPurity C18 HPLC column (30×2.1 mm, 5μ) from ThermoHypersil. A Multiplex LX-2 HPLC system (Cohesive Technologies, Franklin, Mass.) with two identical Agilent 1100 series binary pumps (P/N G1312A) were used for elution and separation. Samples were maintained at 4° C. in an HTS Pal autosampler (LEAP Technologies, Carrboro, N.C.) in order to reduce any potential spontaneous hydrolysis of the compounds before injection onto the HPLC. The analytes were eluted using the following mobile phases; Mobile phase A contained 1% acetonitrile in 10 mM ammonium formate aqueous solution with 1% formic acid. Mobile phase B contained 80% acetonitrile in 10 mM ammonium formate with 1% formic acid. The HPLC elution program used to elute the analytes was as follows:
The samples were further analyzed by tandem mass spectrometry using a TSQ Quantum Ultra triple quadrupole mass spectrometer (Thermo Finnigan, San Jose, Calif.) using a selective reaction monitoring (SRM) scan type. The mass spectrometry parameters used were as follows:
Nine-point standard curves for each test compound were prepared and analyzed in heat-inactivated lung homogenate. […] The data expressed in Table 2 represent the mean (n=3) percent remaining compound in both types of homogenate at 2 hours, 37° C.

[2] = Drug levels in plasma, BALF and lung after IT administration in the rat; details: for Plasma Conc: analyte after IT administration of Example 83, 1 mg/kg
Procedure: Compounds of Examples 52 and 83 were formulated for intratracheal (IT) dosing in 10% EtOH, 90% Sterile Water, and dosed in male Sprague-Dawley rats at 3 mg/kg (Example 52) and 1 mg/kg (Example 83). Each dosing group consisted of 3 male, naïve purebred Sprague-Dawley rats. At dosing, the animals weighed ˜0.30 kg. The animals were fasted overnight prior to dose administration and up to 2 hr after dosing. The compounds were administered IT using a Penn Century Microsprayer (Model 1A-1B).
Blood samples were collected at 0.5, 2, and 4 hours post-dose. Each blood sample (0.5-0.6 mL per sample) was collected via the orbital sinus (following anesthesia for BAL procedure) into tubes containing EDTA anti-coagulant into containers surrounded by dry ice at 0.5, 2 and 4 hr (mean, n=6). Blood samples were stored at −20±5° C. until shipped for analysis.
The animals were anesthetized with an intramuscular (IM) injection of a ketamine/xylazine/acepromazine (80/10/2 mg/kg) cocktail at a dose volume of 1.1 mL/kg. A cannula (modified Bard® infant feeding tube) was inserted into the trachea. Warmed sterile saline was injected into the lungs. The lungs were gently massaged by palpation of the chest for approximately 45 seconds. The fluid (BALF) was recovered and placed on ice. The procedure was repeated two more times, and all three BALF samples pooled. The fluid was centrifuged under refrigerated conditions at 350 g for 10 minutes. The supernatant and cell pellet were collected and stored at approximately −70° C. until shipped for analysis.
Immediately following each BAL procedure, the lungs from each animal were removed, blotted dry, weighed, and stored frozen at −70° C. until shipped for analysis.
An LC/MS/MS method was used to measure the concentration of compound in plasma.
Add 3×w/v of 1×PBS buffer (90:10-PBS:ACN) to each lung tissue. Homogenize the sample w/Polytron (PT1200) and take 50 uL of supernatant and inject to LC/MSMS.
An aliquot of 50 μL of each plasma sample was treated with 100 mL of acetonitrile (ACN) containing internal standard. After the protein precipitation, an aliquot of 100 μL of the supernatant was transferred to a clean 96-well plate and mixed with 100 μL of water. An aliquot of 30 μL of the above solution was injected to the TSQ Ultra Quantum LC/MS/MS system.
A HyPurity C18 HPLC column (30×2.1 mm, 5μ) from ThermoHypersil (Part #: 22105-032130) was used. Mobile phase A contained 1% acetonitrile in 10 mM ammonium formate aqueous solution with 1% formic acid. Mobile phase B contained 80% acetonitrile in 10 mM ammonium formate with 1% formic acid. An Agilent 1100 series binary pump (P/N G1312A Bin Pump) was used for elution and separation. HTS Pal autosampler from LEAP Technologies, Carrboro, N.C. was used.
TSQ Quantum Ultra triple quadrupole mass spectrometer from Thermo Finnigan, San Jose, Calif. was used in selective reaction monitoring (SRM) operation mode, Tune file:

[3] = Inactive (heat-inactivated) rat lung homogenate

| SMILES | Mean [Parent] (nM) at 2 hrs, 37° C. ([1]; Active homogenate) [nM] | Mean % compound remaining at 2 hrs, 37° C. ([1]; Active rat lung homogenate) [%] | Mean % compound remaining at 2 hrs, 37° C. [1, 3] [%] | Mean [Parent] (nM) at 2 hrs, 37° C. ([1]; Inactive homogenate) [nM] | Metabolism in the lung following IT administration ([2]; IT) | Plasma Conc ([2]; 0.5 hr) | Plasma Conc ([2]; 2.0 hr) | Plasma Conc ([2]; 4.0 hr) |
| --- | --- | --- | --- | --- | --- | --- | --- | --- |
| CC(CN(C)C)OC(=O)OCC(=O)[C@@]12O[C@H](C3CCCCC3)O[C@@H]1C[C@H]1[C@@H]3CCC4=CC(=O)C=C[C@]4(C)[C@H]3[C@@H](O)C[C@@]12C (some centres unmarked) [Example 28] | 120 | 45 | 64 | 147 |  |  |  |  |
| C[C@]12C=CC(=O)C=C1CC[C@@H]1[C@@H]2[C@@H](O)C[C@@]2(C)[C@H]1C[C@H]1O[C@@H](C3CCCCC3)O[C@]12C(=O)COC(=O)c1cccnc1 [Example 29, Nicotinic acid [[11β,16α]-[[((R)-cyclohexylmethylene)bis(oxy)]-11-hydroxypregna-1,4-diene-3,20-dion-21-yl]]ester] | 2 | 1 | 72 | 130 |  |  |  |  |
| CCN(CC)Cc1cccc(C(=O)OCC(=O)[C@@]23O[C@H](C4CCCCC4)O[C@@H]2C[C@H]2[C@@H]4CCC5=CC(=O)C=C[C@]5(C)[C@H]4[C@@H](O)C[C@@]23C)c1 [Example 31, 3-Diethylaminomethylbenzoic acid [[11β,16α]-[[((R)-cyclohexylmethylene)bis(oxy)]-11-hydroxypregna-1,4-diene-3,20-dion-21-yl]]ester] | 127 | 68 | 68 | 127 |  |  |  |  |
| CCN(CC)CC(=O)OCC(=O)[C@@]12O[C@H](C3CCCCC3)O[C@@H]1C[C@H]1[C@@H]3CCC4=CC(=O)C=C[C@]4(C)[C@H]3[C@@H](O)C[C@@]12C [Example 32, 4-Diethylaminoacetic acid [[11β,16α]-[[((R)-cyclohexylmethylene)bis(oxy)]-11-hydroxypregna-1,4-diene-3,20-dion-21-yl]]ester] | 1 | 1 | 61 | 119 |  |  |  |  |
| C[C@]12C=CC(=O)C=C1CC[C@@H]1[C@@H]2[C@@H](O)C[C@@]2(C)[C@H]1C[C@H]1O[C@@H](C3CCCCC3)O[C@]12C(=O)COC(=O)/C=C/c1cccnc1 [Example 33, 3-(Pyridin-3-yl)acrylic acid [[11β,16a]-[[((R)-cyclohexylmethylene)bis(oxy)]-11-hydroxypregna-1,4-diene-3,20-dion-21-yl]]ester] | 4 | 3 | 78 | 124 |  |  |  |  |
| C[C@]12C=CC(=O)C=C1CC[C@@H]1[C@@H]2[C@@H](O)C[C@@]2(C)[C@H]1C[C@H]1O[C@@H](C3CCCCC3)O[C@]12C(=O)COC(=O)CCc1cccnc1 [Example 34, 3-(Pyridin-3-yl)propionic acid [[11β,16α]-[[((R)-cyclohexylmethylene)bis(oxy)]-11-hydroxypregna-1,4-diene-3,20-dion-21-yl]]ester] | 1 | 0 | 73 | 159 |  |  |  |  |
| CN1CCC[C@H]1C(=O)OCC(=O)[C@@]12O[C@H](C3CCCCC3)O[C@@H]1C[C@H]1[C@@H]3CCC4=CC(=O)C=C[C@]4(C)[C@H]3[C@@H](O)C[C@@]12C [Example 38, (S) 1-Methylpyrrolidinecarboxylic acid [[11β,16α]-[[((R)-cyclohexylmethylene)bis(oxy)]-11-hydroxypregna-1,4-diene-3,20-dion-21-yl]]ester] | 1 | 1 | 40 | 71 |  |  |  |  |
| CN(C)CCNC(=O)OCC(=O)[C@@]12O[C@H](C3CCCCC3)O[C@@H]1C[C@H]1[C@@H]3CCC4=CC(=O)C=C[C@]4(C)[C@H]3[C@@H](O)C[C@@]12C [Example 39, 2-Dimethylaminoethylcarbamic acid [[11β,16α]-[[((R)-cyclohexylmethylene)bis(oxy)]-11-hydroxypregna-1,4-diene-3,20-dion-21-yl]]ester] | 186 | 92 | 78 | 162 |  |  |  |  |
| CN(C)CCN(C)C(=O)OCC(=O)[C@@]12O[C@H](C3CCCCC3)O[C@@H]1C[C@H]1[C@@H]3CCC4=CC(=O)C=C[C@]4(C)[C@H]3[C@@H](O)C[C@@]12C [Example 40, 2-Dimethylaminoethyl(methyl)carbamic acid [[11β,16α]-[[((R) -cyclohexylmethylene)bis(oxy)]-11-hydroxypregna-1,4-diene-3,20-dion-21-yl]]ester] | 222 | 83 | 78 | 167 |  |  |  |  |
| CN1CCN(C(=O)OCC(=O)[C@@]23O[C@H](C4CCCCC4)O[C@@H]2C[C@H]2[C@@H]4CCC5=CC(=O)C=C[C@]5(C)[C@H]4[C@@H](O)C[C@@]23C)CC1 [Example 41, 4-Methylpiperazinecarboxylic acid [[11β,16α]-[[((R)-cyclohexylmethylene)bis(oxy)]-11-hydroxypregna-1,4-diene-3,20-dion-21-yl]]ester] | 170 | 68 | 78 | 172 |  |  |  |  |
| CC(C)[C@@H](N)C(=O)OCC(=O)[C@@]12O[C@H](C3CCCCC3)O[C@@H]1C[C@H]1[C@@H]3CCC4=CC(=O)C=C[C@]4(C)[C@H]3[C@@H](O)C[C@@]12C [Example 50, Valine [[11β,16α]-[16,17-((R)-cyclohexylmethylene)bis(oxy)]-11-hydroxypregna-1,4-diene-3,20-dion-21-yl]ester] | 219 | 45 | 25 | 50 |  |  |  |  |
| CC(C)[C@@H](NC(=O)c1cccnc1)C(=O)OCC(=O)[C@@]12O[C@H](C3CCCCC3)O[C@@H]1C[C@H]1[C@@H]3CCC4=CC(=O)C=C[C@]4(C)[C@H]3[C@@H](O)C[C@@]12C [Example 51, N-(Pyridin-3-carbonyl)valine [[11β,16α]-[16,17-((R)-cyclohexylmethylene)bis(oxy)]-11-hydroxypregna-1,4-diene-3,20-dion-21-yl]ester] | 176 | 86 | 85 | 169 |  |  |  |  |
| CN(C)CC(=O)OCC(=O)[C@@]12O[C@H](C3CCCCC3)O[C@@H]1C[C@H]1[C@@H]3CCC4=CC(=O)C=C[C@]4(C)[C@H]3[C@@H](O)C[C@@]12C [Example 75, N,N-Dimethylglycine [[11β,16α]-[16,17-((R)-cyclohexylmethlylene)bis(oxy)]-11-hydroxypregna-1,4-diene-3,20-dion-21-yl]ester] | 1 | 1 | 55 | 101 |  |  |  |  |
| C[C@]12C=CC(=O)C=C1CC[C@@H]1[C@@H]2[C@@H](O)C[C@@]2(C)[C@H]1C[C@H]1O[C@@H](C3CCCCC3)O[C@]12C(=O)COC(=O)Cc1cccnc1 [Example 76, 3-Pyridineacetic acid [[11β,16α]-[16,17-((R)-cyclohexylmethylene)bis(oxy)]-11-hydroxypregna-1,4-diene-3,20-dion-21-yl]ester] | 4 | 2 | 83 | 142 |  |  |  |  |
| CC(C)[C@@H](C(=O)OCC(=O)[C@@]12O[C@H](C3CCCCC3)O[C@@H]1C[C@H]1[C@@H]3CCC4=CC(=O)C=C[C@]4(C)[C@H]3[C@@H](O)C[C@@]12C)N(C)C [Example 79, N,N-dimethylvaline [[11β,16α]-[16,17-((R)-cyclohexylmethylene)bis(oxy)]-11-hydroxypregna-1,4-diene-3,20-dion-21-yl]ester] | 149 | 85 | 61 | 88 |  |  |  |  |
| CC[N+](CC)(CC(=O)OCC(=O)[C@@]12O[C@H](C3CCCCC3)O[C@@H]1C[C@H]1[C@@H]3CCC4=CC(=O)C=C[C@]4(C)[C@H]3[C@@H](O)C[C@@]12C)Cc1cc([C@@H](O)CNCCCCCCOCCCCc2ccccc2)ccc1OP(=O)(O)O.[Cl-] [Example 83, [5-[1-(R)-hydroxy-2-[6-(4-phenylbutoxy)hexylamino]ethyl]-2-phosphonooxybenzyl]-(diethyl)-[[11β,16α]-[16,17-((R-cyclohexylmethylene)bis(oxy)]-11-hydroxypregna-1,4-diene-3,20-dion-21-oxy]-carbonylmethyl]ammonium chloride] |  |  |  |  | metabolized to Salmeterol and Desisobutyryl Ciclesonide in the lung |  |  |  |
| C[C@]12C=CC(=O)C=C1CC[C@@H]1[C@@H]2[C@@H](O)C[C@@]2(C)[C@H]1C[C@H]1O[C@@H](C3CCCCC3)O[C@]12C(=O)CO [des-ciclesonide, desisobutyryl ciclesonide, reference compound] | 119 | 98 | 71 | 84 |  | BLQ | BLQ | BLQ |
